Source: US20060280687A1, “Compounds for tissue imaging and methods of use thereof” (priority 2005, published 2006)
Values belong to the compound of their own block, whether it stands above or below them.

Key:
[1] = Stability on in vitro incubation in mouse serum, HPLC analysis; format: in vitro ADME; settings: 30 minutes incubation in mouse serum
Description: The stability of the Cy5.5-2DG compound was evaluated by incubating the compound in vitro in mouse serum and analyzing the serum as a function of time by high pressure liquid chromatography (HPLC). […] The main peak is observed at 15.2 minutes.

C6 rat glioma cells = test: In vitro cell uptake by fluorescence microscopy, C6; format: cell-based; settings: 1 hour
Description: (§1) For fluorescence microscopic studies, 1 M cells were cultured on 35 mm MatTek glass bottom culture dishes (Cat #: P35G-0-14-C, Ashland, Mas.). After 24 hours, the cells were washed with phosphate-buffered saline (PBS) and then incubated at 37° C. or 4° C. in the presence of 100 nM Cy5.5-2DG for 1 hour. Afterwards, cells were washed in 1 mL ice-cold PBS. The fluorescence signal of the cells was recorded using an Axiovert 200M fluorescence microscope (Carl Zeiss MicroImaging, Inc., Thornwood, N.Y.) equipped with a Cy5.5 filter set (Exciter, HQ 650/20 nm; Emitter, HQ 675/35 nm). An AttoArc HBO 100 W microscopic illuminator was used as a light source for fluorescence excitation. Images were taken using a thermoelectrically cooled charge-coupled device (CCD) (Micromax, model RTE/CCD-576, Princeton Instruments Inc., Trenton, N.J.) and analyzed using WinView Software version 1.6.2 (Princeton Instruments Inc., Trenton, N.J.)
Additional in vitro studies were conducted with several other tumor cells lines, including C6 rat glioma cells. Following the procedure set forth in Example 2, the glioma cells were incubated for one hour at 37° C. or at 4° C., and light images and fluorescent images were taken. The light images are shown in FIGS. 6A and 6B and the fluorescent images in FIGS. 6C and 6D. Both light images show cells in the image field.

[2] = tested on: human glioblastoma cells (U87MG); test: In vitro cell uptake by fluorescence microscopy, U87MG; format: cell-based; settings: 100 nM, 1 hour
Description: Human glioblastoma U87MG cells were cultured in Dulbecco's modified Eagle medium (DMEM, Invitrogen Life Technologies, Carlsbad, Calif.), high glucose plus 10% fetal bovine serum (FBS), and 1% penicillin-streptomycin. The cells were maintained in a humidified atmosphere of 5% CO2 at 37° C., with the medium changed every other day. A confluent monolayer was detached with trypsin and dissociated into a single cell suspension for further cell culture.
as §1, with “After 24 hours, the cells were washed with phosphate-buffered saline (PBS) and then incubated at 37° C. or 4° C. in the presence of 100 nM Cy5.5-2DG for 1 hour. Afterwards, cells were washed in 1 mL ice-cold PBS.” left out
Tumor uptake of the Cy5.5-2DG compound into human glioblastoma cells (U87MG) was determined by incubating the cells in vitro with the compound for one hour at either 37° C. or at 4° C., as described in Example 2. […]

[3] = tested on: A375M human melanoma cells; test: In vitro cell uptake by fluorescence microscopy, A375M; format: cell-based; settings: 1 hour
Description: as §1
The light images (FIGS. 7A and 7B) show cells in the optical field.

[4] = tested on: human melanoma (A375M) xenograft; test: In vivo fluorescence imaging of mice bearing a human melanoma (A375M) xenograft; settings: n=3
Description: Another study was conducted using mice (n=3) bearing a human melanoma (A375M) xenograft. When the tumor reached […] diameter, the mice received via tail vein injection 500 pmol of Cy5.5-2DG compound.

[5] = tested on: murine melanoma cells B16F10; test: In vitro cell uptake by fluorescence microscopy, B16F10; format: cell-based; settings: 1 hour
Description: as §1
FIGS. 8A and 8C show a light image (FIG. 8A) and a fluorescent image (FIG. 8C) of murine melanoma cells B16F10 incubated in vitro with Cy5.5-2DG for one hour at 37° C. […] FIGS. 8B and 8D show a light image (FIG. 8B) and a fluorescent image (FIG. 8D) of the same type of cells incubated in vitro with Cy5.5-2DG for one hour at 4° C.

[6] = tested on: human glioblastoma xenograft (U87MG); test: In vivo fluorescence imaging of mice bearing a U87MG glioblastoma xenograft
Description: All animal studies were carried out in compliance with federal and local institutional rules for the conduct of animal experimentation. Female athymic nude mice (nu/nu, 10-12 weeks old), obtained from Charles River Laboratories (Boston, Mas.), were inoculated subcutaneously in the right foreleg with 5×10^6 U87MG cultured glioblastoma cells suspended in 100 μL of PBS. Two to three weeks after inoculation, when the tumors reached 0.4-0.6 cm in diameter, the tumor bearing mice were subject to in vivo imaging studies.
In vivo fluorescence imaging was performed with a cooled charged-coupled device (CCD) camera (Xenogen IVIS™ 200 small animal imaging system, Xenogen, Alameda, Calif.). A Cy5.5 filter set was used for acquiring Cy5.5-2DG fluorescence in vivo. Identical illumination settings (lamp voltage, filters, f/stop, field of views, binning) were used for acquiring all images, and fluorescence emission was normalized to photons per second per centimeter squared per steradian (p/s/cm^2/sr). Images were acquired and analyzed using Living Image® D2.5 software (Xenogen).
Mice were injected via tail vein with 50 or 500 pmol Cy5.5-2DG and subjected to optical imaging at various time points post injection with a sampling of multiple angles while remaining sedated. […]
All the data are given as means ± SD of n independent measurements. Statistical analysis was performed using a Student's t-test. Statistical significance was assigned for P values <0.05. For determining tumor contrast, mean fluorescence intensities of the tumor area at the right shoulder of the animal (T) and of the corresponding area at the left shoulder (N) were calculated by means of the region of interest function of Living Image software(Xenogen) integrated with Igor (Wavemetrics, Lake Oswego, Oreg.). Dividing T by N yielded the contrast between tumor tissue and normal tissue.
In vivo studies were done to evaluate performance of the Cy5.5-2DG compound in tumor-bearing subjects. As described in Example 3, mice were inoculated in the right foreleg with 5×10^6 U87MG cultured glioblastoma cells. Two to three weeks after inoculation, when the tumors reached 0.4-0.6 cm in diameter, the tumor-bearing mice were used for in vivo imaging studies.
In one study, the mice received 500 pmol of Cy5.5-2DG compound, injected via tail vein. At various times post injection of the probe, an animal was sedated and then imaged using a small animal imaging system available under the trade designation IVIS® (Xenogen, Alameda, Calif.). In other studies described below with respect to FIGS. 22-23, imaging was also done using an imaging system from ART eXplore Optix (ART Inc./GE Healthcare) and compared to imaging using the imaging system IVIS®. FIGS. 10A-10M are images generated with the IVIS® system of sedated, live mice in the prone position as a function of time after administration of 500 pmol of Cy5.5-2DG. […] At 1 hour (FIG. 10B), 2 hours (FIG. 10C), 4 hours (FIG. 10D), and 5 hours (FIG. 10E), the probe progressively clears from the body and begins to localize in the tumor in the right foreleg. In fact, by two hours post injection, accumulation of the compound in the tumor is readily apparent in the image (FIG. 10C). […] The presence of the probe in the tumor is apparent in all the images, long after the probe has cleared from healthy tissue.

[7] = tested on: MDA-MB-435 human breast carcinoma cells; test: In vitro cell uptake by fluorescence microscopy, MDA-MB-435; format: cell-based; settings: 1 hour
Description: as §1
FIGS. 9A-9D illustrate the results of a similar study using MDA-MB-435 human breast carcinoma cells. Incubation at 37° C. […] (FIGS. 9B and 9D).

[8] = UV absorption and fluorescence spectra; format: physicochemical
Description: The crude product was then injected onto a semi-preparative HPLC column, where the flow rate was 3 mL/min, with the mobile phase starting from 5% solvent B (0.1%TFA in CH3CN) and 95% solvent A (0.1%TFA in water) (0-3 min) to 65% solvent B and 35% solvent A at 33 min, then going to 85% solvent B and 15% solvent A (33-36 min), maintaining this solvent composition for another three minutes (36-39 min), and returning to initial solvent composition by 42 min. Product elution was monitored at both 218 and 590 nm using a UV-Vis detector. The product peak was collected, lyophilized, and identified by MALDI-TOF-MS. The chemical purity of product was determined by analytical HPLC (same gradient as used for semi-preparative HPLC; flow rate: 1.0 ml/min). The product was re-dissolved in saline at a concentration of 1 mg/mL, and stored in the dark at −80° C. until use. The absorbance spectrum of Cy5.5-2DG was rerecorded on an Agilent 8453 UV-visible ChemStation (Agilent Technologies, Wilmington, DE), and fluorescence spectrum of Cy5.5-2DG was measured on a Fluoromax-3 fluorophotometer (JOBIN YVON/HORIBA, Edison, N.J.).

[9] = 500 pmol i.v., lateral position

stability in mouse serum [1]: stable
time after injection at which accumulation in the tumor is apparent ([6]; 50 pmol i.v., lateral position): 1 h
time after injection at which preferential accumulation in the tumor is apparent ([6]; 50 pmol i.v., prone position): 30 min
time to maximum fluorescence intensity ([6]; 50 pmol i.v., prone position): ≤ 30 min
latest time point with fluorescence of the tumor tissue observed [6, 9]: 94 h
time by which compound has cleared from the tumor (tumor no longer visible) [6, 9]: ≤ 114 h
time post injection at which localization in the tumor is apparent in the image [6, 9]: two
time post injection at which accumulation in the tumor is apparent in the image ([6]; 500 pmol i.v., prone position): two
retention in the tumor ([6]; after single administration): up to 100 hours
UV absorption wavelength [8]: about 675 nm
fluorescent emission wavelength [8]: about 694 nm
Compound: CC[N+]1=C(C=CC=CC=C2N(CCCCCC(=O)NC3C(O)OC(CO)C(O)C3O)c3ccc4c(S(=O)(=O)[O-])cc(S(=O)(=O)O)cc4c3C2(C)C)C(C)(C)c2c1ccc1c(S(=O)(=O)[O-])cc(S(=O)(=O)O)cc21.[K+] (stereo not shown) [Cy5.5-2DG]
uptake into the cells (C6 rat glioma cells; 4° C.): took up little, if any, of the compound
uptake into the cells (C6 rat glioma cells; 37° C.): distinct fluorescing cells visible
uptake of the fluorescent compound by the cells ([2]; 4° C.): lack of fluorescing cells
uptake of the fluorescent compound by the cells ([2]; 37° C.): considerably more uptake
uptake into the cells ([3]; 4° C.): no apparent fluorescence
uptake into the cells ([3]; 37° C.): took in the compound
fluorescence of tumor tissue ([4]; 500 pmol i.v., 3, 24 and 48 hours post-injection): continued preferential fluorescence of tumor tissue
localization in the tumor ([4]; 500 pmol i.v., 2 hours post-injection): localization of the compound in the tumor is apparent
uptake into the cells ([5]; 4° C.): Little, if any
uptake into the cells ([5]; 37° C.): Uptake of the compound into the cells is apparent
ratio of fluorescence intensity of tumor tissue to healthy tissue ([6]; 50 pmol i.v., lateral position): about two
ratio of fluorescence intensity of tumor tissue to healthy tissue ([6]; 50 pmol i.v., prone position, 30 minutes after injection): 1.5
ratio of fluorescence intensity of tumor tissue to healthy tissue ([6]; 50 pmol i.v., prone position, by about 10 hours after injection): more than two
ratio of fluorescence intensity of tumor tissue to healthy tissue ([6]; 500 pmol i.v., lateral position, by about five hours post injection): two
ratio of fluorescence intensity of tumor tissue to healthy tissue ([6]; 500 pmol i.v., lateral position, up to 100 hours post injection): around two
ratio of fluorescence intensity of tumor tissue to healthy tissue (average radiance) ([6]; 500 pmol i.v., prone position, 120 hours post injection): 1.5
ratio of fluorescence intensity of tumor tissue to healthy tissue (average radiance) ([6]; 500 pmol i.v., prone position, about 4 hours post-injection): 1.5
ratio of fluorescence intensity of tumor tissue to healthy tissue (average radiance) ([6]; 500 pmol i.v., prone position, about 18 hours post injection): two
ex vivo fluorescence of dissected tumor versus major tissues and organs ([6]; 500 pmol, 45 hours post injection): highest fluorescence intensity among the tissues imaged
uptake into the tumor cells ([7]; 4° C.): little of the compound
uptake into the tumor cells ([7]; 37° C.): resulted in uptake

UV absorption wavelength [8]: about 675 nm
fluorescent emission wavelength [8]: about 694 nm
Compound: CCN1\C(=C/C=C/C=C/C2=[N+](CCCCCC(=O)O)c3ccc4c(S(=O)(=O)O)cc(S(=O)(=O)O)cc4c3C2(C)C)C(C)(C)c2c1ccc1c(S(=O)(=O)[O-])cc(S(=O)(=O)O)cc21 [Cy5.5® dye, reference compound]
